Tested on: prostaglandin D2 generation following 48/80-induced mast cell degranulation
Test: In vivo mast cell activation (compound 48/80-induced degranulation, PGD2 in peritoneal lavage by LC/MS/MS)
Parameters: species or system mouse
Conditions: normal C57Bl6/N mice; oral 0.1-10 mg/kg ~1 hour prior to 48/80 i.p.; peritoneal lavage 7 minutes afterwards; FIG. 2
Protocol: Mice were randomized by body weight into 8 groups (n=8): Vehicle (0.5% HPML with 0.1% Tween80)+phosphate buffered saline (PBS), vehicle+compound 48/80 (0.75 mg/ml) and compound 48/80+Example 21 at various doses ranging from 0.1 mg/kg to 10 mg/kg.
C57BL mice were dosed orally with vehicle, or Example 21 at 0.1, 0.3, 1, 3, & 10 mg/kg. One hour later, blood samples were withdrawn via tail snip for measurement of drug levels, and mice were then terminally anesthetized with 2% isoflurane and given an intraperitoneal injection of 0.2 mL PBS or compound 48/80 solution (0.75 mg/mL, Sigma), followed by gentle massage of the abdomen. Mice were kept under anesthesia for 7 minutes prior to euthanasia. […]
Samples were thawed at room temperature and vortex-mixed. […] The plate was vortex-mixed for 30 seconds at 1000 rpm and analyzed by LC/MS/MS.
The analytical system consisted of a CTC HTS PAL autoinjector (Leap, Carrboro, N.C.), an Agilent 1290 Infinity binary pump and thermostated column compartment (Agilent Technologies, Santa Clara, Calif.) and an AB Sciex QTRAP 5500 mass spectrometer (AB Sciex, Framingham, Mass.). […] The analytes were detected by multiple reaction monitoring (MRM) in negative mode using Turbolon spray with the transitions of m/z 351/271 amu for PGD2/PGE2 and m/z 360/280 amu for PGD2-d9/PGE2-d9. […]

In the case of CC(C)(O)[C@H]1CC[C@H](NC(=O)c2cnc3nc(C4CC4)ccc3c2)CC1 [Example 21, 7-Cyclopropyl-N-((trans)-4-(2-hydroxypropan-2-yl)cyclohexyl)-1,8-naphthyridine-3-carboxamide], the “48/80-induced PGD2 generation in lavage fluid” value is reported as “prevents 48/80-induced PGD2 generation”.

Source: patent publication US11149035B2, “Chemical compounds as H—PGDS inhibitors” (GlaxoSmithKline Intellectual Property Development Limited, priority 2017, dated 2021)
